Measured values as given in patent US20250302845A1, “SELECTIVE DOPAMINE INCREASE” (SOBRERA PHARMA AB, priority 2022, published 2025).
“Also recorded” adds a separate entry of the source.

Tests used:
Parameters in all cases: species or system Wistar Han rat
[1] = test system: dopamine (DA) in the dorsomedial striatum (DMS); test: In vivo microdialysis of dopamine in dorsomedial striatum (Example 1)
Protocol: (§1) 95 adult male Wistar Han rats (Envigo, Horst, Netherlands) were used in all experiments, weighing 280 to 350 g at the time of surgery (corresponding to approximately 9-10 weeks of age). The animals were housed in groups of five per cage (55×35×20 cm) at constant room temperature (22° C.), relative humidity (65%), and regular dark-light conditions (lights on at 7 AM and off at 7 PM). […] The animals were allowed to acclimate to the animal facilities for at least one week before surgery. This study was approved by the Ethics Committee for Animal Experiments, Gothenburg, Sweden and conducted according to national laws and guidelines for the care and use of laboratory animals.
(§2) Nicotine ((−)-nicotine hydrogen tartrate salt, Sigma, Stockholm, Sweden), 95% ethanol (Kemetyl AB, Stockholm, Sweden), varenicline (6,7,8,9-tetrahydro-6,10-methano-6H-pyrazino[2,3-h][3]benzazepine tartrate; provided by Pfizer Global Research and Development) and N-methyl-N-[(3R)-3-phenyl-3-[4-(trifluoromethyl) phenoxy]propyl]-glycine (Org 24598) (Tocris, Bristol, United Kingdom) were dissolved in physiological saline solution (0.9% NaCl) and administered subcutaneous (nicotine and varenicline) or intraperitoneal (ethanol and Org 24598) at a volume of 2 ml/kg (nicotine and varenicline), 5 ml/kg for EtOH and 4 ml/kg for Org 24598. The pH of the nicotine solution was neutralized with bicarbonate to approximately 7.2-7.4.
(§3) The microdialysis experiments were performed as previously described (Clarke, et al., 2014, Increase in nucleus accumbens dopamine levels following local ethanol administration is not mediated by acetaldehyde, Alcohol Alcohol 49, 498-504; Danielsson et al., 2021, Differential dopamine release by psychosis-generating and non-psychosis-generating addictive substances in the nucleus accumbens and dorsomedial striatum, Transl Psychiatry 11, 472). Animals were anaesthetized with isoflurane before being mounted into a stereotaxic instrument (David Kopf Instruments, AgnTho's, Stockholm, Sweden). The animals were equipped with either a standard in-house made single probe placed in the nAc (A/P +1.85, M/L −1.2, D/V −7.8) or the DMS (A/P+1.2, M/L −1.4, D/V −5.5) (Paxinos, 2007, The rat brain in stereotaxic coordinates. Amsterdam u.a.: Elsevier, Academic Press, Amsterdam), or a custom-made dual microdialysis probe (FIG. 1), which permits simultaneous sampling from both the nAc and DMS. Two additional holes were drilled in the skull in order to allow anchoring screws to be fastened, and the probe and screws were set in place using Harvard cement (DAB Dental AB, Stockholm, Sweden). The animals were then placed in single housing cages and allowed to recover for 48 h prior to the microdialysis experiment.
On the day of the experiment, the animals were connected to a microperfusion pump (U-864 Syringe Pump, AgnTho's, Sweden) via a swivel, which allowed the animals to move around the cage freely. […]
(§4) Microdialysis samples were analyzed as previously described for DA (Clarke, et al., 2014, Increase in nucleus accumbens dopamine levels following local ethanol administration is not mediated by acetaldehyde, Alcohol Alcohol 49, 498-504). In brief, DA content was analyzed using high performance liquid chromatography (HPLC) with electrochemical detection, using an external standard containing 3.25 fmol/μl of DA to identify DA peaks and quantify DA content. The chromatograms were analyzed using the software Thermo Scientific Chromelion Chromatography System (CDS) Chromelion 7.

[2] = test system: dopamine (DA) in the nucleus accumbens (nAc); test: In vivo microdialysis of dopamine in nucleus accumbens (Example 1); details: for DA effect nAc vs DMS (brain region comparison over time): dual probe, Org 24598 9 mg/kg, varenicline 1.5 mg/kg
Protocol: as §1, §2, §3
On the day of the experiment, the animals were connected to a microperfusion pump (U-864 Syringe Pump, AgnTho's, Sweden) via a swivel, which allowed the animals to move around the cage freely. During the entire experiment, the probes were perfused with Ringer solution at a rate of 2 μl/min, and dialysate samples were collected every 20 min. Baseline sampling commenced after a 2-hour period, during which a balanced fluid exchange was established. Once at least three consecutive stable DA values were obtained (±10%), pharmacological treatment was administered, followed by a total of 180 minutes of sampling.
as §4

[3] = test system: dopamine (DA) in the nucleus accumbens (nAc); test: In vivo microdialysis of dopamine in nucleus accumbens (Example 2)
Protocol: (§5) Adult male Wistar Han rats (Envigo, Horst, Netherlands) were used, weighing approximately 320 g at the time of surgery (corresponding to approximately 9-10 weeks of age). The animals were housed in groups of five per cage (55×35×20 cm) at constant room temperature (22° C.), relative humidity (65%), and regular dark-light conditions (lights on at 7 AM and off at 7 PM). All animals had ad libitum access to standard rat feed (Harlan Teklad, Envigo, Europe) and tap water. The animals were allowed to acclimate to the animal facilities for at least one week before surgery. This study was approved by the Ethics Committee for Animal Experiments, Gothenburg, Sweden and conducted according to national laws and guidelines for the care and use of laboratory animals.
(§6) The microdialysis experiments were performed as previously described (Clarke et al., 2014; Danielsson et al., 2021). […]
as §4, with “(Clarke” for “(Clarke,”, “2014).” for “2014, Increase in nucleus accumbens dopamine levels following local ethanol administration is not mediated by acetaldehyde, Alcohol Alcohol 49, 498-504).”

[4] = test system: dopamine (DA) in the dorsomedial striatum (DMS); test: In vivo microdialysis of dopamine in dorsomedial striatum (Example 2); details: 12 mg/kg i.p., dual probe, same Wistar rat, FIG. 5
Protocol: as §5, §6
as §4, with “(Clarke” for “(Clarke,”, “2014).” for “2014, Increase in nucleus accumbens dopamine levels following local ethanol administration is not mediated by acetaldehyde, Alcohol Alcohol 49, 498-504).”

[5] = dual probe microdialysis, 0-180 min, Org 24598 9 mg/kg intraperitoneal, varenicline 1.5 mg/kg subcutaneous, alone or combined
[6] = two-way ANOVA, 0-180 min, alone or combined
[7] = single probe microdialysis, t=0-180 min, EtOH 2.5 g/kg intraperitoneal, nicotine 0.36 mg/kg subcutaneous, alone or combined
[8] = single probe microdialysis, t=0-180 min, EtOH 2.5 g/kg intraperitoneal, nicotine 0.36 mg/kg subcutaneous, alone or combined, listed as ethanol

## CN1CCCC1c1cccnc1.O=C(O)C(O)C(O)C(=O)O (single isomer, unassigned; (-)) [nicotine, (−)-nicotine hydrogen tartrate salt]
[1]; rat, in vivo
  effect on DMS DA vs vehicle (AUC): elevated DA significantly
[2]; rat, in vivo
  DA elevation nAc vs DMS (brain region comparison over time): no effect by brain region on the DA elevation
  effect on nAc DA vs vehicle (AUC): significant and substantial increase in accumbal DA

## c1cnc2cc3c(cc2n1)[C@@H]1CNC[C@H]3C1 [varenicline, 7,8,9,10-tetrahydro-6,10-methano-6H-pyrazino[2,3-h][3]benzazepine]
[1]; [5]
  effect on DMS DA vs vehicle (AUC): small but significant elevation of DA over time
[2]; [6]
  DA effect nAc vs DMS (brain region comparison over time): did also not differ between brain regions

## COc1cc(C(=O)NCC2(N(C)C)CCCC2)cc(OC)c1OCc1ccccc1.Cl [Org 25543]
[3]; 12 mg/kg i.p., dual probe, same Wistar rat, FIG. 5
  effect on dopamine levels in nAc: increase in dopamine levels in nAc
[3]; 4 or 8 mg/kg i.p., systemic administration, FIG. 4
  effect on dopamine in the nAc: dose-dependent increase of dopamine in the nAc
[4]
  effect on dopamine levels in DMS: reduction in dopamine levels in DMS

## CCO [EtOH, ethanol]
[1]; [7]
  effect on DMS DA vs vehicle (AUC): significantly increased DA over time
[1]; [8]
  effect on DMS DA vs vehicle (AUC): elevated DA significantly
[2]; [7]
  effect on nAc DA vs vehicle (AUC): transient increase in DA
[2]; [8]
  effect on nAc DA vs vehicle (AUC): not statistically significant
[2]; two-way ANOVA, t=0-180 min, EtOH 2.5 g/kg, nicotine 0.36 mg/kg, alone or combined
  DA elevation nAc vs DMS (brain region comparison over time): did not produce statistically different DA elevations in the nAc and the DMS

## CN(CC[C@@H](Oc1ccc(C(F)(F)F)cc1)c1ccccc1)CC(=O)O [Org 24598, N-methyl-N-[(3R)-3-phenyl-3-[4-(trifluoromethyl)phenoxy]propyl]-glycine]
[1]; [5]
  effect on DMS DA vs vehicle (AUC): minor DA increase
[2]; [5]
  effect on nAc DA vs vehicle (AUC): no significant effect; also recorded: minor DA increase
[2]; [6]
  DA effect nAc vs DMS (brain region comparison over time): did not differ between the two areas
